Source: patent US10077261B2, “Imidazolin-5-one derivative useful as FASN inhibitors for the treatment of cancer” (Janssen Pharmaceutica NV, priority 2012, dated 2018)

Molecular target: T1, hFASN enzyme (full length) (Homo sapiens, UniProt P49327)
T1 construct: 10 μL hFASN enzyme (full length, 300 ng, purified in house); made in house
Assay: Fatty Acid Synthase (FASN) inhibition scintillation proximity assay
Format: biochemical
Conditions: for inhibition at 10 µM: read-out: Human FASN % inhibition @ 10 μM, 10 μM test compound; for IC50: read-out: Human FASN pIC50 (converted)
How it was run: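 Full-length in-house purified enzyme (300 ng) was tested in 100 mM KH2PO4 pH 7.5, 1 mM DTT with ³H-acetyl-CoA and malonyl-CoA as substrates; compounds ranged 0.01–30 μM. Reactions were stopped with streptavidin imaging beads, read by LEADseeker at 610 nm, and fitted to a 4-parameter logistic curve.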

T1 sequence (P49327 whole entry): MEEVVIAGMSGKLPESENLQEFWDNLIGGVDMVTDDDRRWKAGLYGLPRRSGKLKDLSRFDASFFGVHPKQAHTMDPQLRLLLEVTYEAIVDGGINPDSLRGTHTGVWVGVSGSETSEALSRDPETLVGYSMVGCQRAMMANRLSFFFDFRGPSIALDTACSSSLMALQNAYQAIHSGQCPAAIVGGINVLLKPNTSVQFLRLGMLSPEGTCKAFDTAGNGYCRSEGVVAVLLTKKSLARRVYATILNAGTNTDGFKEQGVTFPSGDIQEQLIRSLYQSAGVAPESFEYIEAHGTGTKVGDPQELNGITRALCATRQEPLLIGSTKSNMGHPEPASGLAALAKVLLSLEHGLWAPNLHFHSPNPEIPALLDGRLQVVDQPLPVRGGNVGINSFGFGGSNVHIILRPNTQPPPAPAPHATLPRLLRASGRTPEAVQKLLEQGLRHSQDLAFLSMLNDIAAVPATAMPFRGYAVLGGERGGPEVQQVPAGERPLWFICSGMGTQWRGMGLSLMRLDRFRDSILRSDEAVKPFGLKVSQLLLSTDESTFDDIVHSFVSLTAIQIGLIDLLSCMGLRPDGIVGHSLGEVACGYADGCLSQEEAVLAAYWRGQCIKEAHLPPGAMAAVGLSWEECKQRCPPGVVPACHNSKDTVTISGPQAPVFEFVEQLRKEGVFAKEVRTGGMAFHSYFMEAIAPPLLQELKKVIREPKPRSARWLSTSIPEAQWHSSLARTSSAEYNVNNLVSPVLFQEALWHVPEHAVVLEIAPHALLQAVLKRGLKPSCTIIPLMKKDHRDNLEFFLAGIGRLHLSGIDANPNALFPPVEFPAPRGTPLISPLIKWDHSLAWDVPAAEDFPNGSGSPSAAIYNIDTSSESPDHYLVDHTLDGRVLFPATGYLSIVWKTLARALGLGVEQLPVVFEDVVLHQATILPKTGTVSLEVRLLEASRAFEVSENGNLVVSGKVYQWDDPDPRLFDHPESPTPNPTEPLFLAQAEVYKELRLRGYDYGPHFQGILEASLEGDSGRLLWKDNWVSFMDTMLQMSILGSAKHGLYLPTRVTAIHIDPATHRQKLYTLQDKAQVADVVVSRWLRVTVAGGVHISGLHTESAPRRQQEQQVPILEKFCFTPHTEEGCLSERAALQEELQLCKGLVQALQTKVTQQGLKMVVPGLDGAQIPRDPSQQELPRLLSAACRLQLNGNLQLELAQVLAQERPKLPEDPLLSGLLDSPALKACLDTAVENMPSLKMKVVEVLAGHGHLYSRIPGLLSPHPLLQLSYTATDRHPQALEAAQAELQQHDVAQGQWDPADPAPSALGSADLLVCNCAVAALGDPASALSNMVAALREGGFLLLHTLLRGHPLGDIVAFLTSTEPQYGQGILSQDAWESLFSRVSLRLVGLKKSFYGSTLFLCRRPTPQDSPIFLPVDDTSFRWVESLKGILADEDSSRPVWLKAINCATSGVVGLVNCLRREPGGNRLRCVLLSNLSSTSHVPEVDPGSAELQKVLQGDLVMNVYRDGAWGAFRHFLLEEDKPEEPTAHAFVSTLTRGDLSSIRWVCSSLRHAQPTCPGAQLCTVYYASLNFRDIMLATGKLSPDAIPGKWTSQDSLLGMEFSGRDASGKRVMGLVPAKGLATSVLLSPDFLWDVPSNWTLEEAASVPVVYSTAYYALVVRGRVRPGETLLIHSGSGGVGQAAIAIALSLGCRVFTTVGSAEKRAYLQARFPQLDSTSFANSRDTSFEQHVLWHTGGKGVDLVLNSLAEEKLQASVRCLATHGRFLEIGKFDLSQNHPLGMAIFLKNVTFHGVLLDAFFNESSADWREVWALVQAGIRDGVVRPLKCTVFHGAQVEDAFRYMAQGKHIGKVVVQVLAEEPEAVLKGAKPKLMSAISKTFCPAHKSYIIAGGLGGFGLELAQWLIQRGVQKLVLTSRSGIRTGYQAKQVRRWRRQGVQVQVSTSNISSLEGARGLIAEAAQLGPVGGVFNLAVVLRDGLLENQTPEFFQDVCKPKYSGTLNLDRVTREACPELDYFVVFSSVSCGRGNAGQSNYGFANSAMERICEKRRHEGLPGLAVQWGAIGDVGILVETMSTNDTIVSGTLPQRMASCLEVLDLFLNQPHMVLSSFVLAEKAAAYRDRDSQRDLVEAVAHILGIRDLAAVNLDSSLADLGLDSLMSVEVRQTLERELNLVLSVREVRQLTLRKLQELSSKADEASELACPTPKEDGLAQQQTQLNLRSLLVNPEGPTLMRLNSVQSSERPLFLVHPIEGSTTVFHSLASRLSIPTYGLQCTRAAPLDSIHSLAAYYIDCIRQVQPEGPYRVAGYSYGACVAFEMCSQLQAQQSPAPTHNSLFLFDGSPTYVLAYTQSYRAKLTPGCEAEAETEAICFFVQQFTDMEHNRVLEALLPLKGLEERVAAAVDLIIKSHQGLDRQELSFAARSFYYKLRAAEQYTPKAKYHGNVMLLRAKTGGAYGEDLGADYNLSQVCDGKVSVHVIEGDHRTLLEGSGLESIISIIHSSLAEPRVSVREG

inhibition at 10 µM [%] | IC50 [µM] | Structure (SMILES)
14 | > 10 | COC(=O)N1CC[C@@H](CN2C(=O)C3(CN(C(=O)OC)C3)N=C2c2ccc(-c3ccc(-c4cnn(C)c4)cc3)cc2)C1 [compound 906, (S)-methyl 7-((1-(methoxycarbonyl)pyrrolidin-3-yl)methyl)-6-(4′-(1-methyl-1H-pyrazol-4-yl)-[1,1′-biphenyl]-4-yl)-8-oxo-2,5,7-triazaspiro[3.4]oct-5-ene-2-carboxylate]
21 | > 10 | COC(=O)N1CC2(C1)N=C(c1ccc(-c3ccc4c(cnn4C)c3)cc1)N(C[C@@H]1CCN(C(=O)C(F)(F)F)C1)C2=O [compound 907, (R)-methyl 6-(4-(1-methyl-1H-indazol-5-yl)phenyl)-8-oxo-7-((1-(2,2,2-trifluoroacetyl)pyrrolidin-3-yl)methyl)-2,5,7-triazaspiro[3.4]oct-5-ene-2-carboxylate]
2 | > 10 | Cn1ncc2cc(-c3ccc(C4=NC5(CCOCC5)C(=O)N4CC4CN(C(=O)c5nccs5)C4)cc3)ccc21 [compound 908, 2-(4-(1-methyl-1H-indazol-5-yl)phenyl)-3-((1-(thiazole-2-carbonyl)azetidin-3-yl)methyl)-8-oxa-1,3-diazaspiro[4.5]dec-1-en-4-one]
6 | > 10 | Cn1ncc2cc(-c3ccc(C4=NC5(CCOC5)C(=O)N4CC4CN(C(=O)c5nccs5)C4)cc3)ccc21 (centres unmarked) [compound 909, 2-(4-(1-methyl-1H-indazol-5-yl)phenyl)-3-((1-(thiazole-2-carbonyl)azetidin-3-yl)methyl)-7-oxa-1,3-diazaspiro[4.4]non-1-en-4-one]
7 | > 10 | Cn1cc(-c2ccc(-c3ccc(C4=NC5(CCOCC5)C(=O)N4CC4CN(C(=O)c5nccs5)C4)cc3)cc2)cn1 [compound 911, 2-(4′-(1-methyl-1H-pyrazol-4-yl)-[1,1′-biphenyl]-4-yl)-3-((1-(thiazole-2-carbonyl)azetidin-3-yl)methyl)-8-oxa-1,3-diazaspiro[4.5]dec-1-en-4-one]
1 | > 10 | CS(=O)(=O)N1CC(CN2C(=O)C3(CCOCC3)N=C2c2ccc(-c3ccc4cccnc4c3)cc2)C1 [compound 912, 3-((1-(methylsulfonyl)azetidin-3-yl)methyl)-2-(4-(quinolin-7-yl)phenyl)-8-oxa-1,3-diazaspiro[4.5]dec-1-en-4-one]
1 | > 10 | CS(=O)(=O)N1CC[C@@H](CN2C(=O)C3(CCOC3)N=C2c2ccc(-c3ccc4occc4c3)cc2)C1 (stereo partly drawn) [compound 914, 2-(4-(benzofuran-5-yl)phenyl)-3-(((S)-1-(methylsulfonyl)pyrrolidin-3-yl)methyl)-7-oxa-1,3-diazaspiro[4.4]non-1-en-4-one]
11 | > 10 | COC(=O)N1CC[C@@H](CN2C(=O)C3(CCOC3)N=C2c2ccc(-c3ccc4c(cnn4C)c3)cc2)C1 (stereo partly drawn) [compound 915, (3S)-methyl 3-((2-(4-(1-methyl-1H-indazol-5-yl)phenyl)-4-oxo-7-oxa-1,3-diazaspiro[4.4]non-1-en-3-yl)methyl)pyrrolidin-1-carboxylate]
5 | > 10 | O=C(C1CC1)N1CCC[C@@H](CN2C(=O)C3(CC3)N=C2c2ccc(-c3ccc(O)cc3)cc2)C1 [compound 925, (R)-6-((1-(cyclopropanecarbonyl)piperidin-3-yl)methyl)-5-(4′-hydroxy-[1,1′-biphenyl]-4-yl)-4,6-diazaspiro[2.4]hept-4-en-7-one]
-8 | > 10 | Cn1ncc2cc(-c3ccc(C4=NC5(CCOCC5)C(=O)N4C[C@@H]4CCN(S(C)(=O)=O)C4)cc3)ccc21 [compound 926, (S)-2-(4-(1-methyl-1H-indazol-5-yl)phenyl)-3-((1-(methylsulfonyl)pyrrolidin-3-yl)methyl)-8-oxa-1,3-diazaspiro[4.5]dec-1-en-4-one]
10 | > 10 | COC(=O)N1CC(CN2C(=O)C3(CCOCC3)N=C2c2ccc(-c3ccc4occc4c3)cc2)C1 [compound 928]
6 | > 10 | COC(=O)N1CC2(C1)N=C(c1ccc(-c3ccc(-c4cnn(C)c4)cc3)cc1)N(C[C@@H]1CCN(C(=O)c3nccs3)C1)C2=O [compound 929, (R)-methyl 6-(4′-(1-methyl-1H-pyrazol-4-yl)-[1,1′-biphenyl]-4-yl)-8-oxo-7-((1-(thiazole-2-carbonyl)pyrrolidin-3-yl)methyl)-2,5,7-triazaspiro[3.4]oct-5-ene-2-carboxylate]
-14 | > 10 | O=C(c1nccs1)N1CC(CN2C(=O)C3(CCOC3)N=C2c2ccc(-c3ccc4cccnc4c3)cc2)C1 (centres unmarked) [compound 930, 2-(4-(quinolin-7-yl)phenyl)-3-((1-(thiazole-2-carbonyl)azetidin-3-yl)methyl)-7-oxa-1,3-diazaspiro[4.4]non-1-en-4-one]
31 | > 10 | COC(=O)N1CC[C@@H](CN2C(=O)C3(CN(C(=O)OC)C3)N=C2c2ccc(-c3ccc4occc4c3)cc2)C1 [compound 931, (S)-methyl 6-(4-(benzofuran-5-yl)phenyl)-7-((1-(methoxycarbonyl)pyrrolidin-3-yl)methyl)-8-oxo-2,5,7-triazaspiro[3.4]oct-5-ene-2-carboxylate]

Second part, the compound before the results:

Structure (SMILES) | inhibition at 10 µM [%] | IC50 [µM]
COC(=O)N1CC(CN2C(=O)C3(CCOC3)N=C2c2ccc(-c3ccc4c(cnn4C)c3)cc2)C1 (centres unmarked) [compound 905, methyl 3-((2-(4-(1-methyl-1H-indazol-5-yl)phenyl)-4-oxo-7-oxa-1,3-diazaspiro[4.4]non-1-en-3-yl)methyl)azetidine-1-carboxylate] | -7 | > 10
O=C(N1CC(CN2C(=O)C3(CCOCC3)N=C2c2ccc(-c3ccc4cccnc4c3)cc2)C1)C(F)(F)F [compound 910, 2-(4-(quinolin-7-yl)phenyl)-3-((1-(2,2,2-trifluoroacetyl)azetidin-3-yl)methyl)-8-oxa-1,3-diazaspiro[4.5]dec-1-en-4-one] | 12 | > 10
CS(=O)(=O)N1CC[C@@H](CN2C(=O)C3(CCOCC3)N=C2c2ccc(-c3ccc4occc4c3)cc2)C1 [compound 913, (S)-2-(4-(benzofuran-5-yl)phenyl)-3-((1-(methylsulfonyl)pyrrolidin-3-yl)methyl)-8-oxa-1,3-diazaspiro[4.5]dec-1-en-4-one] | 0.4 | > 10
COC(=O)N1CC[C@@H](CN2C(=O)C3(CN(C(=O)OC)C3)N=C2c2ccc(-c3ccc4c(cnn4C)c3)cc2)C1 [compound 916, (S)-methyl 7-((1-(methoxycarbonyl)pyrrolidin-3-yl)methyl)-6-(4-(1-methyl-1H-indazol-5-yl)phenyl)-8-oxo-5,7-triazaspiro[3.4]oct-5-ene-2-carboxylate] | 20 | > 10
COC(=O)N1CC2(C1)N=C(c1ccc(-c3ccc4c(cnn4C)c3)cc1)N(C[C@@H]1CCN(S(C)(=O)=O)C1)C2=O [compound 917, (S)-methyl 6-(4-(1-methyl-1H-indazol-5-yl)phenyl)-7-((1-(methylsulfonyl)pyrrolidin-3-yl)methyl)-8-oxo-2,5,7-triazaspiro[3.4]oct-5-ene-2-carboxylate] | 2 | > 10
COC(=O)N1CC2(C1)N=C(c1ccc(-c3ccc(-c4cnn(C)c4)cc3)cc1)N(C[C@@H]1CCN(C(=O)C(F)(F)F)C1)C2=O [compound 919, (R)-methyl 6-(4′-(1-methyl-1H-pyrazol-4-yl)-[1,1′-biphenyl]-4-yl)-8-oxo-7-((1-(2,2,2-trifluoroacetyl)pyrrolidin-3-yl)methyl)-2,5,7-triazaspiro[3.4]oct-5-ene-2-carboxylate] | 12 | > 10
O=C(c1nccs1)N1CC[C@@H](CN2C(=O)C3(CCOC3)N=C2c2ccc(-c3ccc4cccnc4c3)cc2)C1 (stereo partly drawn) [compound 920, 2-(4-(quinolin-7-yl)phenyl)-3-(((R)-1-(thiazole-2-carbonyl)pyrrolidin-3-yl)methyl)-7-oxa-1,3-diazaspiro[4.4]non-1-en-4-one] | 35 | > 10
Cn1cc(-c2ccc(-c3ccc(C4=NC5(CCOCC5)C(=O)N4CC4CN(S(C)(=O)=O)C4)cc3)cc2)cn1 [compound 921, 2-(4′-(1-methyl-1H-pyrazol-4-yl)-[1,1′-biphenyl]-4-yl)-3-((1-(methylsulfonyl)azetidin-3-yl)methyl)-8-oxa-1,3-diazaspiro[4.5]dec-1-en-4-one] | -7 | > 10
COC(=O)N1CC2(C1)N=C(c1ccc(-c3ccc(-c4cnn(C)c4)cc3)cc1)N(C[C@@H]1CCN(C(=O)N3CCCC3)C1)C2=O [compound 924, (S)-methyl 6-(4′-(1-methyl-1H-pyrazol-4-yl)-[1,1′-biphenyl]-4-yl)-8-oxo-7-((1-(pyrrolidine-1-carbonyl)pyrrolidin-3-yl)metrhyl)-2,5,7-triazaspiro[3.4]oct-5-ene-2-carboxylate] | 41 | > 10
COC(=O)N1CC(CN2C(=O)C3(CCOC3)N=C2c2ccc(-c3ccc(-c4cnn(C)c4)cc3)cc2)C1 (centres unmarked) [compound 927, methyl 3-((2-(4′-(1-methyl-1H-pyrazol-4-yl)-[1,1′-biphenyl]-4-yl)-4-oxo-7-oxa-1,3-diazaspiro[4.4]non-1-en-3-yl)methyl)azetidine-1-carboxylate] | -2 | > 10
O=C(c1nccs1)N1CC(CN2C(=O)C3(CCOC3)N=C2c2ccc(-c3ccc4occc4c3)cc2)C1 (centres unmarked) [compound 932, 2-(4-(benzofuran-5-yl)phenyl)-3-((1-(thiazole-2-carbonyl)azetidin-3-yl)methyl)-7-oxa-1,3-diazaspiro[4.4]non-1-en-4-one] | 2 | > 10
